This passage reports EC50 and IC50 results from patent US9890188B2, “Substituted nucleosides, nucleotides and analogs thereof” (ALIOS BIOPHARMA, INC., priority 2014, dated 2018).

In the first assay the test system is Human rhinovirus 1B. The assay can be described thus: Picornavirus assay: human rhinovirus 1B cytopathic effect in HeLa-OHIO cells, CellTiter-Glo readout. The class given is cell-based. The note with it: Rhinovirus A, 96 h, compound and virus added together, 4 d at 33° C. The procedure: (§1) HeLa-OHIO cells (Sigma-Aldrich, St. Louis, Mo.) were plated in 96 well plates at a density of 1.5×10^5 cells per well in assay media (MEM without phenol red or L-glutamine, supplemented with 1% FBS, 1% penicillin/streptomycin, 2 mM GlutaGro, and 1×MEM nonessential amino acids, all from Cellgro, Manassas, Va.). Assay setup took place after allowing cells to adhere for 24 h. Compounds dissolved in DMSO were serially diluted in assay media to 2× final concentration. Media was aspirated from the cells, and 1000 media with compound was added in triplicate. Human rhinovirus 1B (ATCC, Manassas, Va.) was diluted in assay media, and 100 μL was added to cells and compound. The virus inoculum was selected to cause 80-90% cytopathic effect in 4 d. Infected cells were incubated for 4 d at 33° C., 5% CO2. To develop the assay, 100 μL media was replaced with 100 μL CellTiter-Glo® reagent (Promega, Madison, Wis.), and incubated for 10 mins at RT. Luminescence was measured on a Victor X3 multi-label plate reader. Compounds of Formula (I) are active in this assay.
A general note: Cytopathic effects are the visible damage that an infection or toxin causes in cultured cells.
With `Nc1ccn([C@@H]2O[C@@](CO)(CF)[C@@H](O)[C@@H]2Cl)c(=O)n1` [Compound 2], the EC50 (as a rule, the concentration that produces a half-maximal response) lay within 1 to 10 µM.

`Nc1ccn([C@@H]2O[C@@](CO)(CCl)[C@@H](O)[C@@H]2F)c(=O)n1` [Compound 3] gave a half-maximal effective concentration (EC50) below 1 µM.

In turn, `Nc1ccn([C@@H]2O[C@@](CO)(CF)[C@@H](O)[C@@H]2F)c(=O)n1` [Compound 7] yielded an EC50 below 1 µM.

Compound `[N-]=[N+]=NC[C@]1(CO)O[C@@H](n2ccc(N)nc2=O)C[C@@H]1O` [Compound 37] displayed a concentration giving a half-maximal response (EC50) below 1 µM.

`[N-]=[N+]=NC[C@]1(CO)O[C@@H](n2ccc(N)nc2=O)[C@@H](F)[C@@H]1O` [Compound 4] gave an EC50 below 1 µM.

As for `CC[C@]1(CO)O[C@@H](n2ccc(N)nc2=O)[C@@H](F)[C@@H]1O` [Compound 10], the EC50 was 1 to 10 µM.

Turning to `C=C[C@]1(CO)O[C@@H](n2ccc(N)nc2=O)[C@@H](F)[C@@H]1O` [Compound 9], the EC50 is below 1 µM.

The next assay deals with human rhinovirus 16 polymerase (HRV16pol) (Human rhinovirus 16, UniProt Q82122). The assay can be described thus: Picornavirus polymerase inhibition assay: incorporation of tritiated NMP into acid-insoluble RNA products. Format: biochemical.
human rhinovirus 16 polymerase (HRV16pol), sequence (Q82122 1694-2153 limits assumed): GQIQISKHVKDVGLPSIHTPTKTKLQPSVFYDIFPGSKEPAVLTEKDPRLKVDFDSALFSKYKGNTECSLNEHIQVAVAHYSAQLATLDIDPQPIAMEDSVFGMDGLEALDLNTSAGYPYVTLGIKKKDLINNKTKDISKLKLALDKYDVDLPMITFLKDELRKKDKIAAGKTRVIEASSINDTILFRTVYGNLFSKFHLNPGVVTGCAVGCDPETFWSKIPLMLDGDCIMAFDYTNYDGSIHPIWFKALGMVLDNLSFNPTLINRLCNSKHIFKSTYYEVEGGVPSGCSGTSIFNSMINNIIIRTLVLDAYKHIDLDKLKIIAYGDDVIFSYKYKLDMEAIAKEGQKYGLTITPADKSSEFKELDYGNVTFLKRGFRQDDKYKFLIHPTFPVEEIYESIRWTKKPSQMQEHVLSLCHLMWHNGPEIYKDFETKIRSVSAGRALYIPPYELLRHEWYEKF
Conditions: not given
On the procedure: The enzyme activity of human rhinovirus 16 polymerase (HRV16pol) was measured as an incorporation of tritiated NMP into acid-insoluble RNA products. HRV16pol assay reactions contained 30 Nm recombinant enzyme, 50 Nm heteropolymeric RNA, about 0.5 μCi tritiated NTP, 0.1 Mm of competing cold NTP, 40 Mm Tris-HCl (Ph 7.0), 3 Mm dithiothreitol, and 0.5 Mm MgCl2. Standard reactions were incubated for 2.5 h at 30° C., in the presence of increasing concentration of inhibitor. At the end of the reaction, RNA was precipitated with 10% TCA, and acid-insoluble RNA products were filtered on a size exclusion 96-well plate. After washing of the plate, scintillation liquid was added and radiolabeled RNA products were detected according to standard procedures with a Trilux Microbeta scintillation counter. The compound concentration at which the enzyme-catalyzed rate was reduced by 50% (IC50) was calculated by fitting the data to a non-linear regression (sigmoidal).
A value of ‘A’ in the table below indicates an IC50 of <5 μM, a value of 13′ indicates an IC50<20 μM, and a value of ‘C’ indicates an IC50 value of <100 μM.
Consider `Nc1ccn([C@@H]2O[C@](CF)(COP(=O)(O)OP(=O)(O)OP(=O)(O)O)[C@@H](O)[C@@H]2F)c(=O)n1` [Compound 21], for which the IC50 – broadly, the point on the concentration scale where inhibition reaches its midpoint – was below 5 µM.

Staying with this assay, now noted: recombinant HRV16pol, 2.5 h at 30° C., mean of several independent experiments; read-out: IC50.
As to `CC[C@]1(COP(=O)(O)OP(=O)(O)OP(=O)(O)O)O[C@@H](n2ccc(N)nc2=O)[C@@H](F)[C@@H]1O` [Compound 24], the IC50 is below 5 µM.

As to `C#C[C@@H]1[C@H](n2ccc(N)nc2=O)O[C@](CF)(COP(=O)(O)OP(=O)(O)OP(=O)(O)O)[C@H]1O` [Compound 48], the half-inhibitory concentration (IC50) is below 5 µM.

As for `[N-]=[N+]=NC[C@]1(COP(=O)(O)OP(=O)(O)OP(=O)(O)O)O[C@@H](n2ccc(N)nc2=O)[C@@H](F)[C@@H]1O` [Compound 18], the IC50 was 5 to 20 µM.

As for `Nc1ccn([C@H]2C[C@H](O)[C@](COP(=O)(O)OP(=O)(O)OP(=O)(O)O)(C(F)F)O2)c(=O)n1` [Compound 54], the half-maximal inhibitory concentration (IC50) is below 5 µM.

`C[C@@H]1[C@H](n2ccc(N)nc2=O)O[C@](CF)(COP(=O)(O)OP(=O)(O)OP(=O)(O)O)[C@H]1O` [Compound 47]: the IC50 is below 5 µM.

Consider `Nc1ccn([C@@H]2O[C@](CF)(COP(=O)(O)OP(=O)(O)OP(=O)(O)O)[C@@H](O)[C@@H]2O)c(=O)n1` [Compound 53], for which the IC50 was below 5 µM.

As for `C=C[C@]1(COP(=O)(O)OP(=O)(O)OP(=O)(O)O)O[C@@H](n2ccc(N)nc2=O)[C@@H](F)[C@@H]1O` [Compound 23], the IC50 is below 5 µM.

Regarding `C#C[C@]1(COP(=O)(O)OP(=O)(O)OP(=O)(O)O)O[C@@H](n2ccc(N)nc2=O)[C@@H](F)[C@@H]1O` [Compound 22], the half-inhibitory concentration (IC50) was in the range of 5 to 20 µM.

`O=c1ccn([C@@H]2O[C@](CCl)(COP(=O)(O)OP(=O)(O)OP(=O)(O)O)[C@@H](O)[C@@H]2F)c(=O)[nH]1` [Compound 19]: the half-maximal inhibitory concentration (IC50) was below 5 µM.

For the compound `Nc1ccn([C@@H]2O[C@@](COP(=O)(O)OP(=O)(O)OP(=O)(O)O)(C(F)F)[C@@H](O)[C@@H]2O)c(=O)n1` [Compound 52], the 50% inhibitory concentration (IC50) was below 5 µM.

In the case of `Nc1ccn([C@@H]2O[C@](CF)(COP(=O)(O)OP(=O)(O)OP(=O)(O)O)[C@@H](O)[C@@H]2Cl)c(=O)n1` [Compound 16], the IC50 was 20 to 100 µM.

For `Nc1ccn([C@@H]2O[C@](CF)(COP(=O)(O)OP(=O)(O)OP(=O)(O)O)[C@@H](O)[C@@H]2CF)c(=O)n1` [Compound 50], the half-maximal inhibitory concentration (IC50) was 5 to 20 µM.

Take `Nc1ccn([C@@H]2O[C@](CBr)(COP(=O)(O)OP(=O)(O)OP(=O)(O)O)[C@@H](O)[C@@H]2F)c(=O)n1` [Compound 20]: the 50% inhibitory concentration (IC50) lay within 20 to 100 µM.

For a further assay, the system named is Human rhinovirus 1B. In words: Picornavirus assay with 24 h compound pre-incubation before infection: human rhinovirus 1B in HeLa-OHIO cells, CellTiter-Glo readout. The class given is cell-based. The note with it: Rhinovirus A, HeLa-OHIO cells pre-incubated with compound for 24 h before infection, 4 d at 33° C. On the procedure:
as §1, with “100 μl” for “1000”, “triplicate. Cells were pre-incubated with the diluted compounds for 24 h before infection.” for “triplicate.”
On the technique in general: In ATP-based viability assays light output follows the ATP content of the culture.
`Nc1ccn([C@@H]2O[C@@](CO)(C(F)F)[C@@H](O)[C@@H]2O)c(=O)n1` [Compound 44]: the EC50 is 10 to 100 µM.

For the compound `C[C@@H]1[C@H](n2ccc(N)nc2=O)O[C@@](CO)(CF)[C@H]1O` [Compound 41], the EC50 lay within 1 to 10 µM.

For `Nc1ccn([C@@H]2O[C@@](CO)(CF)[C@@H](O)[C@@H]2O)c(=O)n1` [Compound 45], the EC50 is 1 to 10 µM.
